Source: US9476099B2 (TRUSTEES OF DARTMOUTH COLLEGE, priority 2012, dated 2016)

Test system: gene promoters in NT2/D1-R1 control and DNMT3B knockdown cells
Test: Genome-wide promoter methylation analysis, HumanMethylation27 BeadChip (Table 15)
Format: cell-based, human
Settings: sh-3b + 5aza
Description: DNA methylation analysis was performed in samples in triplicate using the […] […] assay with the HumanMethylation27 BeadChip ([…]) and the BeadChip was scanned on the BeadArray Reader ([…]), according to the manufacturer's instructions. Raw data was normalized and analyzed with Genome Studio software ([…]). The HumanMethylation27 BeadChip assays 27,578 CpGs covering more than 14,000 genes, mostly from promoter regions. […] Hierarchical clustering was performed as stated above. HumanMethylation27 BeadChip data and gene expression microarray data were submitted to NCBI GEO.

Nc1ncn([C@H]2C[C@H](O)[C@@H](CO)O2)c(=O)n1 [5aza]
SERPING1 cg12783776 promoter methylation Mean: 0.350
SFRS16 cg19317638 promoter methylation Mean: 0.369
SFXN3 cg04880063 promoter methylation Mean: 0.188
SH3BGRL2 cg03080985 promoter methylation Mean: 0.260
SHH cg25167838 promoter methylation Mean: 0.127
SKIP cg04072323 promoter methylation Mean: 0.310
SLC30A2 cg05674944 promoter methylation Mean: 0.337
SMCP cg09542291 promoter methylation Mean: 0.504
SNX9 cg26845300 promoter methylation Mean: 0.722
SOX17 cg21226224 promoter methylation Mean: 0.495
SPRR1B cg24884084 promoter methylation Mean: 0.334
SSH1 cg11747499 promoter methylation Mean: 0.292
SSTR1 cg27590397 promoter methylation Mean: 0.900
TAC1 cg07550362 promoter methylation Mean: 0.507
TADA3L cg09279263 promoter methylation Mean: 0.350
TERT cg02545192 promoter methylation Mean: 0.311
TNFSF10 cg16555388 promoter methylation Mean: 0.430
TNRC4 cg26093148 promoter methylation Mean: 0.661
TNRC15 cg07230446 promoter methylation Mean: 0.243
TRAF3 cg24165760 promoter methylation Mean: 0.797
TRIM2 cg12793610 promoter methylation Mean: 0.506
TRIM36 cg10693071 promoter methylation Mean: 0.545
TRPM3 cg20555507 promoter methylation Mean: 0.291
UNC5D cg00297600 promoter methylation Mean: 0.384
WDR13 cg25053301 promoter methylation Mean: 0.211
ZFHX1B cg15377518 promoter methylation Mean: 0.472
ZNF222 cg09757277 promoter methylation Mean: 0.355
cg07512517 promoter methylation Mean: 0.473
Mean promoter methylation, ABCA3 cg02331561 (DNMT3B knockdown cells): 0.145
Mean promoter methylation, ABLIM3 cg05026186 (DNMT3B knockdown cells): 0.240
Mean promoter methylation, ACTL6B cg08572611 (DNMT3B knockdown cells): 0.138
Mean promoter methylation, ANKRD46 cg23737055 (DNMT3B knockdown cells): 0.257
Mean promoter methylation, ARNT2 cg17788682 (DNMT3B knockdown cells): 0.139
Mean promoter methylation, B4GALNT3 cg05769161 (DNMT3B knockdown cells): 0.271
Mean promoter methylation, BTBD1 cg16958189 (DNMT3B knockdown cells): 0.259
Mean promoter methylation, C1RL cg22593785 (DNMT3B knockdown cells): 0.188
Mean promoter methylation, C10orf10 cg17186163 (DNMT3B knockdown cells): 0.237
Mean promoter methylation, C10orf72 cg02569613 (DNMT3B knockdown cells): 0.312
Mean promoter methylation, C12orf34 cg01335367 (DNMT3B knockdown cells): 0.420
Mean promoter methylation, C17orf40 cg18042079 (DNMT3B knockdown cells): 0.213
Mean promoter methylation, C19orf30 cg07456645 (DNMT3B knockdown cells): 0.254
Mean promoter methylation, C20orf29 cg09158909 (DNMT3B knockdown cells): 0.226
Mean promoter methylation, C22orf9 cg11221513 (DNMT3B knockdown cells): 0.229
Mean promoter methylation, CACNA1G cg18454685 (DNMT3B knockdown cells): 0.286
Mean promoter methylation, CAMKK2 cg01369981 (DNMT3B knockdown cells): 0.191
Mean promoter methylation, CART cg23300372 (DNMT3B knockdown cells): 0.160
Mean promoter methylation, CCKBR cg13346411 (DNMT3B knockdown cells): 0.197
Mean promoter methylation, CDC42EP1 cg13951472 (DNMT3B knockdown cells): 0.217
Mean promoter methylation, CDKN2A cg10895543 (DNMT3B knockdown cells): 0.168
Mean promoter methylation, CHST8 cg24739326 (DNMT3B knockdown cells): 0.319
Mean promoter methylation, CPSF1 cg20326853 (DNMT3B knockdown cells): 0.241
Mean promoter methylation, CSMD1 cg22619018 (DNMT3B knockdown cells): 0.201
Mean promoter methylation, DCTN3 cg22579849 (DNMT3B knockdown cells): 0.325
Mean promoter methylation, DDX42 cg05797656 (DNMT3B knockdown cells): 0.192
Mean promoter methylation, DGKD cg25506396 (DNMT3B knockdown cells): 0.202
Mean promoter methylation, DGKI cg06277657 (DNMT3B knockdown cells): 0.190
Mean promoter methylation, DKK2 cg01404615 (DNMT3B knockdown cells): 0.398
Mean promoter methylation, DUSP8 cg02271621 (DNMT3B knockdown cells): 0.135
Mean promoter methylation, EHD2 cg12603043 (DNMT3B knockdown cells): 0.176
Mean promoter methylation, ELK1 cg21860846 (DNMT3B knockdown cells): 0.181
Mean promoter methylation, EMP3 cg01795122 (DNMT3B knockdown cells): 0.127
Mean promoter methylation, EYA4 cg01805282 (DNMT3B knockdown cells): 0.174
Mean promoter methylation, FAM70B cg15350194 (DNMT3B knockdown cells): 0.222
Mean promoter methylation, FAM73B cg00729541 (DNMT3B knockdown cells): 0.213
Mean promoter methylation, FCHSD2 cg17114257 (DNMT3B knockdown cells): 0.179
Mean promoter methylation, FLJ20273 cg01704534 (DNMT3B knockdown cells): 0.222
Mean promoter methylation, FLJ20273 cg15967525 (DNMT3B knockdown cells): 0.362
Mean promoter methylation, FLJ42486 cg03734874 (DNMT3B knockdown cells): 0.287
Mean promoter methylation, GAB3 cg12938998 (DNMT3B knockdown cells): 0.235
